{"source": "BindingDB's records for doi:10.1038/nchembio.1930", "about": "(Albert Einstein College of Medicine, 2015)", "conditions_in_all_cases": "25 °C", "key": {"[1]": {"molecular_target": "T1, Isocitrate dehydrogenase [NADP], mitochondrial (Homo sapiens, UniProt P48735)", "T1 sequence (P48735 whole entry)": "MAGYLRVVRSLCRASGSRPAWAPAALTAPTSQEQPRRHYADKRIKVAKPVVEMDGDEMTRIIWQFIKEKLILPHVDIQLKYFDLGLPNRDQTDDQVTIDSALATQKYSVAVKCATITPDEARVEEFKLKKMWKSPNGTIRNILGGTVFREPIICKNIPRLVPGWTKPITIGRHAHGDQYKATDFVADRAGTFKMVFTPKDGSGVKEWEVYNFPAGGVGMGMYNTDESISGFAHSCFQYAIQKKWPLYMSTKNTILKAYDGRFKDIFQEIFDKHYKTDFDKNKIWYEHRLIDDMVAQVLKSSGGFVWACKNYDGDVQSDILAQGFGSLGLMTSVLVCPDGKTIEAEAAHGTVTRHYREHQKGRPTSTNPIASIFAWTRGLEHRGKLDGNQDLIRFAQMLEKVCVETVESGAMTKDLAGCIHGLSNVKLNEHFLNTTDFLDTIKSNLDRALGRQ", "assay": "Diaphorase/Resazurin Coupled Assay", "method": "(§1) For WT IDH1 and IDH2, reactions were conducted at room temperature in 384-well Greiner black microtiter plates in a total volume of 10 μL of assay buffer. […] Reactions were conducted in duplicate and run kinetically. After each addition, plates were centrifuged for 60 s to ensure complete mixing of reagents."}, "[2]": {"molecular_target": "Isocitrate dehydrogenase [NADP] cytoplasmic (Homo sapiens, UniProt O75874)", "sequence (O75874 whole entry)": "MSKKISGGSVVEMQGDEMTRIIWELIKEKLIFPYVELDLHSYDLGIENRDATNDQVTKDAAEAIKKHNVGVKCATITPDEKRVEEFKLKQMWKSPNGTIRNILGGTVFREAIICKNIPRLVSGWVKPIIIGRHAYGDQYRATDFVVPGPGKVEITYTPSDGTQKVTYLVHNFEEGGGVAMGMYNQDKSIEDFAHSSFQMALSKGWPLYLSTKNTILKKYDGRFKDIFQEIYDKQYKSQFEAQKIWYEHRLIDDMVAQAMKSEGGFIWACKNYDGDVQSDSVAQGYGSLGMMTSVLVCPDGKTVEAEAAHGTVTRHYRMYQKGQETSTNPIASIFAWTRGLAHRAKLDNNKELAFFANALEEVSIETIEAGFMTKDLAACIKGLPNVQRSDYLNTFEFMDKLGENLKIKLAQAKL", "assay": "Diaphorase/Resazurin Coupled Assay", "method": "as §1"}, "[3]": {"molecular_target": "Isocitrate dehydrogenase [NADP] cytoplasmic [R132H] (Homo sapiens, UniProt O75874, R132H)", "sequence (O75874 2-414 R132H limits assumed)": "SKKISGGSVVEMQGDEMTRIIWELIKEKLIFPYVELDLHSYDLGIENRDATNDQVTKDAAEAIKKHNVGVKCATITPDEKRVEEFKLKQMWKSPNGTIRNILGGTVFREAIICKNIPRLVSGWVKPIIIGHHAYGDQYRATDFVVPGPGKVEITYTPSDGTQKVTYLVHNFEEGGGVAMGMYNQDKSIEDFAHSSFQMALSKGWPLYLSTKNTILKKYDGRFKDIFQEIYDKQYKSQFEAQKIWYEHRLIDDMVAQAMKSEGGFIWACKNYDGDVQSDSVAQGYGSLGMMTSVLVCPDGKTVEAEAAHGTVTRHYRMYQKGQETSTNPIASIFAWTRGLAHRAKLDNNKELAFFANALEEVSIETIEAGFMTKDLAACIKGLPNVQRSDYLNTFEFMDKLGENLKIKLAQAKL", "assay": "RapidFire-MS/MS and NADPH Assays", "method": "(§2) Reactions were conducted in duplicate and quenched with final concentrations of 100 mM EDTA. After each addition plates were centrifuged for 60 s to ensure complete mixing of reagents. […] For the RapidFire-MS/MS analysis, a 0.5 μL aliquot of each well was diluted 200-fold into a separate analysis plate containing 100 μL of a f"}, "[4]": {"molecular_target": "Isocitrate dehydrogenase [NADP] cytoplasmic [R132G] (Homo sapiens, UniProt O75874, R132G)", "sequence (O75874 2-414 R132G limits assumed)": "as the sequence (O75874 2-414 R132H limits assumed) above, with H131G counted along it", "assay": "RapidFire-MS/MS and NADPH Assays", "method": "as §2"}, "[5]": {"molecular_target": "Isocitrate dehydrogenase [NADP], mitochondrial [R172S] (Homo sapiens, UniProt P48735, R172S)", "sequence (P48735 40-452 R172S limits assumed)": "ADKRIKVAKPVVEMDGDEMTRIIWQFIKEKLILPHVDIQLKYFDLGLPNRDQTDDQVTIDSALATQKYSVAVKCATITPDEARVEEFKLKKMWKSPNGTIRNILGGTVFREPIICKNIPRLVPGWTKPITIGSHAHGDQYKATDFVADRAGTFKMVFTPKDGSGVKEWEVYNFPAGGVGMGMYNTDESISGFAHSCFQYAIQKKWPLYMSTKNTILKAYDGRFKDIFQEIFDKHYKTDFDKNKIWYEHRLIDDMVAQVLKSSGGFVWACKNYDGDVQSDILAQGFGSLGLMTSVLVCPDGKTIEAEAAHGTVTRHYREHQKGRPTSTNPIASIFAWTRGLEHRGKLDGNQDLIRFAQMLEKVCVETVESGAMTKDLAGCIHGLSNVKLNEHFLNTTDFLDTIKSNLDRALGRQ", "assay": "RapidFire-MS/MS and NADPH Assays", "method": "as §2"}, "[6]": {"molecular_target": "Isocitrate dehydrogenase [NADP] cytoplasmic [R132C] (Homo sapiens, UniProt O75874, R132C)", "sequence (O75874 2-414 R132C limits assumed)": "as the sequence (O75874 2-414 R132H limits assumed) above, with H131C counted along it", "assay": "RapidFire-MS/MS and NADPH Assays", "method": "as §2"}, "[7]": {"molecular_target": "Isocitrate dehydrogenase [NADP], mitochondrial [R140Q] (Homo sapiens, UniProt P48735, R140Q)", "sequence (P48735 40-452 R140Q limits assumed)": "as the sequence (P48735 40-452 R172S limits assumed) above, with R101Q, S133R counted along it", "assay": "RapidFire-MS/MS and NADPH Assays", "method": "as §2"}}}
{"smiles": "Cc1cccc(NC(=O)c2nn(Cc3c[nH]cn3)c3c2CN(C(=O)c2ccc[nH]2)CC3)c1", "note": "[GSK990]", "values": [{"measurement": "IC50", "setting": "[1]", "value": "> 100", "unit": "µM"}, {"measurement": "IC50", "setting": "[2]", "value": "> 100", "unit": "µM"}, {"measurement": "IC50", "setting": "[3]", "value": 10.9, "unit": "µM"}, {"measurement": "IC50", "setting": "[4]", "value": 23.3, "unit": "µM"}, {"measurement": "IC50", "setting": "[5]", "value": "> 100", "unit": "µM"}, {"measurement": "IC50", "setting": "[6]", "value": 4.49, "unit": "µM"}, {"measurement": "IC50", "setting": "[7]", "value": "> 100", "unit": "µM"}]}
{"smiles": "C[C@H](O)c1cccc(NC(=O)c2nn(Cc3ccc(F)cc3)c3c2CN(C(=O)c2ccc[nH]2)C[C@H]3C)c1", "note": "[GSK321]", "values": [{"measurement": "IC50", "setting": "[1]", "value": 0.496, "unit": "µM"}, {"measurement": "IC50", "setting": "[5]", "value": 1.03, "unit": "µM"}, {"measurement": "IC50", "setting": "[7]", "value": 1.36, "unit": "µM"}]}
